Results as given in ChEMBL document CHEMBL5532663, “Discovery of Potent and Selective Phosphatidylinositol 3-Phosphate 5-Kinase (PIKfyve) Inhibitors as Methuosis Inducers” (J Med Chem, 2024).

Columns and labels:
[1] = target: T1, 1-phosphatidylinositol 3-phosphate 5-kinase (Homo sapiens, UniProt Q9Y2I7); assay: Binding affinity to PIKfyve (unknown origin) assessed as dissociation constant by KINOMEscan profiling method
[2] = target: T1, 1-phosphatidylinositol 3-phosphate 5-kinase
MDA-MB-231 = assay: cells; conditions: Homo sapiens, MDA-MB-231, 24 h
Description: Antiproliferative activity against human MDA-MB-231 cells assessed as inhibition of cell viability incubated for 24 hrs by CCK8 assay

HeLa = assay: cells; conditions: Homo sapiens, 24 h
Description: Antiproliferative activity against human HeLa cells assessed as inhibition of cell viability incubated for 24 hrs by CCK8 assay

T1 sequence (Q9Y2I7 whole entry): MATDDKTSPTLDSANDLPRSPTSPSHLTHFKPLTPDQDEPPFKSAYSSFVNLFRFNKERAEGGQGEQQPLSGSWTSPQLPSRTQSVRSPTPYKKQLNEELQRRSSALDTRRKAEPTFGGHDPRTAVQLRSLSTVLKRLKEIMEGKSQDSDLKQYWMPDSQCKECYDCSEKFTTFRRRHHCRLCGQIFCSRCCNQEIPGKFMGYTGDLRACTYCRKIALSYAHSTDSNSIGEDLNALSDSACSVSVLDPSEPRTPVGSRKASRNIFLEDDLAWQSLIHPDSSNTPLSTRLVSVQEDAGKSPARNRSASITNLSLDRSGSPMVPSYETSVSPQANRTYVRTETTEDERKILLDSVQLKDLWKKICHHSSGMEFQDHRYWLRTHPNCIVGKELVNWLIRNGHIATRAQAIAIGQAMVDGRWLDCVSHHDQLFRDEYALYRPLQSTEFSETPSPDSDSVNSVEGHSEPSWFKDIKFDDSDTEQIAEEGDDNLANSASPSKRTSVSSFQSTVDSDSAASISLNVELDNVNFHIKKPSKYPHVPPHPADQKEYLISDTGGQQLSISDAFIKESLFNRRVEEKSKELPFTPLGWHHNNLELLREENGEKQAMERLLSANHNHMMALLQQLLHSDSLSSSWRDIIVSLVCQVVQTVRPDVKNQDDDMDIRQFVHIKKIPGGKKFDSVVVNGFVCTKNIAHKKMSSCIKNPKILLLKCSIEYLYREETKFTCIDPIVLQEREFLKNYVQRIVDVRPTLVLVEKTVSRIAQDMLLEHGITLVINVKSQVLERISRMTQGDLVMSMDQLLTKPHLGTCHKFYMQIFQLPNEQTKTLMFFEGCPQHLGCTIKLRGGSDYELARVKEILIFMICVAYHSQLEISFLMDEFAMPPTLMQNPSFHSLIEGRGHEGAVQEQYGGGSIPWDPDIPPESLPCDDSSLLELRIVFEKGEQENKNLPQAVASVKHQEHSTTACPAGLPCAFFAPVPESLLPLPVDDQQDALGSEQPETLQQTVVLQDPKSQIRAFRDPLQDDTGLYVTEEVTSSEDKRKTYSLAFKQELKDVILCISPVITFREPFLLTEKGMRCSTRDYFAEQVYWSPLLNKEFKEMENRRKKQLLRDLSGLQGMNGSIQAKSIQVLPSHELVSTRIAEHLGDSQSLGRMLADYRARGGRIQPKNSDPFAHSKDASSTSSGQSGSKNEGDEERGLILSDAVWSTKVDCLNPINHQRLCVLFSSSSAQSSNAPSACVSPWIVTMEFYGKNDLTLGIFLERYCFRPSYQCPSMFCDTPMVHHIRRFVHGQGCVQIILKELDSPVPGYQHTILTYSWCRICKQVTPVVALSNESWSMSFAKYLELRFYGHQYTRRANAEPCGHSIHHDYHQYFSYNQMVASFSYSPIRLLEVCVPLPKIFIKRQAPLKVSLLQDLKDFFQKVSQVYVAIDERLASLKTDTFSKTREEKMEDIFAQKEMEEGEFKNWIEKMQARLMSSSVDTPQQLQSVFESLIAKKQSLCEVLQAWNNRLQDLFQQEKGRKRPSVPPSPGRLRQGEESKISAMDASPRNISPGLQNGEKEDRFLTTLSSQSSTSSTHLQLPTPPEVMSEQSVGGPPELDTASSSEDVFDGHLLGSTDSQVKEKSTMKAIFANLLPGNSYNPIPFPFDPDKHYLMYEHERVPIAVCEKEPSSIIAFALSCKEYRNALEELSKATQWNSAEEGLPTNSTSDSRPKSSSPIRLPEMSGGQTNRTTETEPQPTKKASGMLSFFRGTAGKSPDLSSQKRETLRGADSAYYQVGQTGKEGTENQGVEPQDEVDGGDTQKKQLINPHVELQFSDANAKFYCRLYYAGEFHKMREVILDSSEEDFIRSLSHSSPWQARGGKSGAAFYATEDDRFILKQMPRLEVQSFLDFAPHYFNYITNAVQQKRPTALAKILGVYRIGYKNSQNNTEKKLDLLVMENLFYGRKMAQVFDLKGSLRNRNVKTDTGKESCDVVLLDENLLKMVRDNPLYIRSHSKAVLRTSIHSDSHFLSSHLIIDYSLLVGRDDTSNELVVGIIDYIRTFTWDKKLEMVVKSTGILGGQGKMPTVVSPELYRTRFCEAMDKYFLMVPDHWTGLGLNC

## COc1ccc2[nH]c(C)c(/C=C/C(=O)c3ccncc3)c2c1
[1]
  Kd: 5.3 nM
[2]
  Kd: 3.75 nM

## Nc1ncnc2c1c(-c1cc3ccccc3o1)cn2[C@H]1CC[C@@H](N)CC1
[2]
  Kd: 1.65 nM
MDA-MB-231
  IC50: 350 nM
HeLa
  IC50: 430 nM

## Nc1ncnc2c1c(-c1coc3ccccc13)cn2[C@H]1CC[C@@H](N)CC1
MDA-MB-231
  IC50: > 5000 nM
HeLa
  IC50: > 5000 nM

## Cc1cccc(/C=N/Nc2cc(N3CCOCC3)nc(OCCc3ccccn3)n2)c1 [APILIMOD]
MDA-MB-231
  IC50: 100 nM
HeLa
  IC50: 140 nM
